Source: patent US20240226026A1, “BRANCHED TAIL LIPID COMPOUNDS AND COMPOSITIONS FOR INTRACELLULAR DELIVERY OF THERAPEUTIC AGENTS” (ModernaTX, Inc., priority 2021, published 2024)

System: not listed separately
Assay: Encapsulation efficiency (% EE) of lipid nanoparticles
Format: physicochemical
Details: Table 2a; nanoparticles comprising the lipid
Method: For nanoparticle compositions including an RNA, a QUANT-IT™ RIBOGREEN® RNA assay (Invitrogen Corporation Carlsbad, CA) can be used to evaluate the encapsulation of an RNA by the nanoparticle composition. The samples are diluted to a concentration of approximately 5 μg/mL in a TE buffer solution (10 mM Tris-HCl, 1 mM EDTA, pH 7.5). 50 μL of the diluted samples are transferred to a polystyrene 96 well plate and either 50 μL of TE buffer or 50 μL of a 2% Triton X-100 solution is added to the wells. The plate is incubated at a temperature of 37° C. for 15 minutes. The RIBOGREEN® reagent is diluted 1:100 in TE buffer, and 100 μL of this solution is added to each well. The fluorescence intensity can be measured using a fluorescence plate reader (Wallac Victor 1420 Multilablel Counter; Perkin Elmer, Waltham, MA) at an excitation wavelength of, for example, about 480 nm and an emission wavelength of, for example, about 520 nm. The fluorescence values of the reagent blank are subtracted from that of each of the samples and the percentage of free RNA is determined by dividing the fluorescence intensity of the intact sample (without addition of Triton X-100) by the fluorescence value of the disrupted sample (caused by the addition of Triton X-100).
The efficiency of encapsulation of a therapeutic and/or prophylactic describes the amount of therapeutic and/or prophylactic that is encapsulated or otherwise associated with a lipid nanoparticle (e.g., an empty LNP or a loaded LNP) after preparation, relative to the initial amount provided. The encapsulation efficiency is desired to be high (e.g., close to 100%). The encapsulation efficiency may be measured, for example, by comparing the amount of therapeutic and/or prophylactic in a solution containing a loaded LNP before and after breaking up the loaded LNP with one or more organic solvents or detergents. Fluorescence may be used to measure the amount of free therapeutic and/or prophylactic (e.g., RNA) in a solution. For the loaded LNPs formulated with lipids of the disclosure, the encapsulation efficiency of a therapeutic and/or prophylactic is at least 50%, for example 50%, 55%, 60%, 65%, 70%, 75%, 80%, 85%, 90%, 91%, 92%, 93%, 94%, 95%, 96%, 97%, 98%, 99%, or 100%. In some embodiments, the encapsulation efficiency is at least 80%. In some embodiments, the encapsulation efficiency is at least 90%. In some embodiments, the encapsulation efficiency of the therapeutic and/or prophylactic agent is between 80% and 100%.
(§1) Lipid nanoparticles (e.g., empty LNPs or loaded LNPs) including DSPC as a phospholipid, cholesterol as a structural lipid, PL-II (e.g., PEG-1) as a PEG lipid, and a lipid according to Formula (I-1), (I), (I-A), (I-A1), (I-A2), (I-A3), or (I-A4) were prepared. In some embodiments, the lipid nanoparticles further included rhodamine-DOPE as a fluorescent lipid. Tables 2a, 2b, and 3 summarize the characteristics of the formulations.

Row | % EE [%] | Structure (SMILES)
1 | 93.2 | CCCCCCCCC(CCCCCCCC)OC(=O)CCCCCCCN(CCCCCCCC(=O)OCCC(CCCC)CCCC)CCCNS(=O)(=O)Cc1ccon1 [Compound 6]
2 | 89.6 | CCCCCC(CCCCC)CCOC(=O)CCCCCCCN(CCCCCCCC(=O)OCCC(CCCC)CCCC)CCCNc1n[s+]([O-])nc1NC (centres unmarked) [Compound 8]
3 | 55.1 | CCCCCC(CCCCC)CCOC(=O)CCCCCCCN(CCCCCCCC(=O)OCCC(CCCC)CCCC)CCCNS(=O)(=O)CCOC [Compound 10]

Same assay, conditions: Table 2b; nanoparticles comprising the lipid

Row | % EE [%] | Structure (SMILES)
4 | 65.0 | CCCCCC(CCCCC)CCOC(=O)CCCCCCCN(CCCCCCCC(=O)OCCC(CCCC)CCCC)CCCNS(=O)(=O)CCOC [Compound 10]

Same assay, conditions: Table 3; nanoparticles comprising the lipid

Row | % EE [%] | Structure (SMILES)
5 | 96.7 | CCCCCCCCC(CCCCCCCC)OC(=O)CCCCCCCN(CCCCCCCC(=O)OCCC(CCCC)CCCC)CCCNS(=O)(=O)Cc1ccon1 [Compound 6]
6 | 97.1 | CCCCCC(CCCCC)CCOC(=O)CCCCCCCN(CCCCCCCC(=O)OCCC(CCCC)CCCC)CCCNc1n[s+]([O-])nc1NC (centres unmarked) [Compound 8]
7 | 91.7 | CCCCCC(CCCCC)CCOC(=O)CCCCCCCN(CCCCCCCC(=O)OCCC(CCCC)CCCC)CCCNS(=O)(=O)CCOC [Compound 10]

System: CD-1 mice
Assay: Expression of hEPO induced by LNPs (mRNA encoding hEPO) administered to mice
Format: in vivo
Details: Table 4a, serum, 6 h after intravenous injection
Method: In some embodiments, hEPO concentrations were determined using an […] (ELLA) Simple Plex Assay (ProteinSimple) with a Human Erythroprotein cartridge. Standards for this assay are calibrated according to the 2. IRP WHO preparation. Nanoparticle compositions including mRNA are useful in the evaluation of the efficacy and usefulness of various formulations for the delivery of therapeutic and/or prophylactics. Higher levels of protein expression induced by administration of a composition including an mRNA will be indicative of higher mRNA translation and/or nanoparticle composition mRNA delivery efficiencies. As the non-RNA components are not thought to affect translational machineries themselves, a higher level of protein expression is likely indicative of a higher efficiency of delivery of the therapeutic and/or prophylactic by a given nanoparticle composition relative to other nanoparticle compositions or the absence thereof.
To assess potency of expression of lipids of the disclosure, the protein expression (hEPO) following administration of a nanoparticle comprising a lipid of the disclosure (e.g., a loaded LNP) to mice was measured.
Lipid nanoparticles (LNPs) including DSPC as a phospholipid, cholesterol as a structural lipid, PL-II (e.g., PEG-1) as a PEG lipid, a lipid according to Formula (I-1), (I), (I-A), (I-A1), (I-A2), (I-A3), or (I-A4), and an mRNA encoding hEPO were intravenously administered to CD-1 mice. The concentration of hEPO in serum was tested at 6 h after injection.

Row | Structure (SMILES) | Avg. hEPO Concentration (mIU/mL) ± Avg. SD [mIU/mL]
8 | CCCCCCCCC(CCCCCCCC)OC(=O)CCCCCCCN(CCCCCCCC(=O)OCCC(CCCC)CCCC)CCCNS(=O)(=O)Cc1ccon1 [Compound 6] | 5.41E+06 ± 6.06E+04
9 | CCCCCC(CCCCC)CCOC(=O)CCCCCCCN(CCCCCCCC(=O)OCCC(CCCC)CCCC)CCCNc1n[s+]([O-])nc1NC (centres unmarked) [Compound 8] | 4.95E+06 ± 1.24E+05
10 | CCCCCC(CCCCC)CCOC(=O)CCCCCCCN(CCCCCCCC(=O)OCCC(CCCC)CCCC)CCCNS(=O)(=O)CCOC [Compound 10] | 6.15E+06 ± 1.35E+05

System: not listed separately
Assay: Apparent pKa of lipid nanoparticles
Format: physicochemical
Details: Table 2a; nanoparticles comprising the lipid

Row | Apparent pKa | Structure (SMILES)
11 | 6.323 | CCCCCCCCC(CCCCCCCC)OC(=O)CCCCCCCN(CCCCCCCC(=O)OCCC(CCCC)CCCC)CCCNS(=O)(=O)Cc1ccon1 [Compound 6]
12 | 6.934 | CCCCCC(CCCCC)CCOC(=O)CCCCCCCN(CCCCCCCC(=O)OCCC(CCCC)CCCC)CCCNc1n[s+]([O-])nc1NC (centres unmarked) [Compound 8]
13 | 6.738 | CCCCCC(CCCCC)CCOC(=O)CCCCCCCN(CCCCCCCC(=O)OCCC(CCCC)CCCC)CCCNS(=O)(=O)CCOC [Compound 10]

Same assay, conditions: Table 2b; 95% confidence interval

Row | Apparent pKa 95% CI | Structure (SMILES)
14 | 6.644 to 6.741 | CCCCCC(CCCCC)CCOC(=O)CCCCCCCN(CCCCCCCC(=O)OCCC(CCCC)CCCC)CCCNS(=O)(=O)CCOC [Compound 10]

System: not listed separately
Assay: Particle size (diameter) and polydispersity index of lipid nanoparticles
Format: physicochemical
Details: Table 2a; nanoparticles comprising the lipid
Method: A Zetasizer Nano ZS (Malvern Instruments Ltd, Malvern, Worcestershire, UK) can be used to determine the particle size, the polydispersity index (PDI) and the zeta potential of the nanoparticle compositions in 1×PBS in determining particle size and 15 mM PBS in determining zeta potential.
Lipid nanoparticles (e.g., empty LNPs or loaded LNPs) may be characterized by a variety of methods. For example, microscopy (e.g., transmission electron microscopy or scanning electron microscopy) may be used to examine the morphology and size distribution of a nanoparticle composition. Dynamic light scattering or potentiometry (e.g., potentiometric titrations) may be used to measure zeta potentials. Dynamic light scattering may also be utilized to determine particle sizes. Instruments such as the Zetasizer Nano ZS (Malvern Instruments Ltd, Malvern, Worcestershire, UK) may also be used to measure multiple characteristics of a nanoparticle composition, such as particle size, polydispersity index, and zeta potential.
as §1

Row | PDI | Structure (SMILES)
15 | 0.042 | CCCCCCCCC(CCCCCCCC)OC(=O)CCCCCCCN(CCCCCCCC(=O)OCCC(CCCC)CCCC)CCCNS(=O)(=O)Cc1ccon1 [Compound 6]
16 | 0.144 | CCCCCC(CCCCC)CCOC(=O)CCCCCCCN(CCCCCCCC(=O)OCCC(CCCC)CCCC)CCCNc1n[s+]([O-])nc1NC (centres unmarked) [Compound 8]
17 | 0.208 | CCCCCC(CCCCC)CCOC(=O)CCCCCCCN(CCCCCCCC(=O)OCCC(CCCC)CCCC)CCCNS(=O)(=O)CCOC [Compound 10]

Same assay, conditions: Table 2a; nanoparticles comprising the lipid, DSPC, cholesterol, PEG lipid

Row | Diameter (nm) | Structure (SMILES)
18 | 60.2 | CCCCCCCCC(CCCCCCCC)OC(=O)CCCCCCCN(CCCCCCCC(=O)OCCC(CCCC)CCCC)CCCNS(=O)(=O)Cc1ccon1 [Compound 6]
19 | 86.9 | CCCCCC(CCCCC)CCOC(=O)CCCCCCCN(CCCCCCCC(=O)OCCC(CCCC)CCCC)CCCNc1n[s+]([O-])nc1NC (centres unmarked) [Compound 8]
20 | 133.3 | CCCCCC(CCCCC)CCOC(=O)CCCCCCCN(CCCCCCCC(=O)OCCC(CCCC)CCCC)CCCNS(=O)(=O)CCOC [Compound 10]

Same assay, conditions: Table 2b; nanoparticles comprising the lipid

Row | Diameter (nm) | PDI | Structure (SMILES)
21 | 122.3 | 0.181 | CCCCCC(CCCCC)CCOC(=O)CCCCCCCN(CCCCCCCC(=O)OCCC(CCCC)CCCC)CCCNS(=O)(=O)CCOC [Compound 10]

Same assay, conditions: Table 3; nanoparticles comprising the lipid

Row | Diameter (nm) | PDI | Structure (SMILES)
22 | 65.9 | 0.163 | CCCCCCCCC(CCCCCCCC)OC(=O)CCCCCCCN(CCCCCCCC(=O)OCCC(CCCC)CCCC)CCCNS(=O)(=O)Cc1ccon1 [Compound 6]
23 | 90.9 | 0.217 | CCCCCC(CCCCC)CCOC(=O)CCCCCCCN(CCCCCCCC(=O)OCCC(CCCC)CCCC)CCCNc1n[s+]([O-])nc1NC (centres unmarked) [Compound 8]
24 | 96.7 | 0.154 | CCCCCC(CCCCC)CCOC(=O)CCCCCCCN(CCCCCCCC(=O)OCCC(CCCC)CCCC)CCCNS(=O)(=O)CCOC [Compound 10]

System: not listed separately
Assay: Lipid nanoparticle surface hydrophobicity by Generalized Polarization by Laurdan (N-GP)
Format: physicochemical
Details: Table 2a; Laurdan; higher N-GP indicates a less polar surface
Text: Surface hydrophobicity of nanoparticles of the disclosure can be measured by Generalized Polarization by Laurdan (GPL). In this method, Laurdan, a fluorescent aminonaphthalene ketone lipid, is post-inserted into the nanoparticle surface and the fluorescence spectrum of Laurdan is collected to determine the normalized Generalized Polarization (N-GP). In some embodiments, nanoparticles formulated with lipids of the disclosure have a surface hydrophobicity expressed as N-GP of between about 0.5 and about 1.5. For example, in some embodiments, nanoparticles formulated with lipids of the disclosure have a surface hydrophobicity expressed as N-GP of about 0.5, about 0.6, about 0.7, about 0.8, about 0.9, about 1.0, about 1.1, about 1.2, about 1.3, about 1.4, or about 1.5. In some embodiments, nanoparticles formulated with lipids of the disclosure have a surface hydrophobicity expressed as N-GP of about 1.0 or about 1.1.

Row | Lipid nanoparticle surface hydrophobicity (N-GP*) | Structure (SMILES)
25 | 0.99 | CCCCCCCCC(CCCCCCCC)OC(=O)CCCCCCCN(CCCCCCCC(=O)OCCC(CCCC)CCCC)CCCNS(=O)(=O)Cc1ccon1 [Compound 6]
26 | 0.99 | CCCCCC(CCCCC)CCOC(=O)CCCCCCCN(CCCCCCCC(=O)OCCC(CCCC)CCCC)CCCNc1n[s+]([O-])nc1NC (centres unmarked) [Compound 8]
27 | 1.03 | CCCCCC(CCCCC)CCOC(=O)CCCCCCCN(CCCCCCCC(=O)OCCC(CCCC)CCCC)CCCNS(=O)(=O)CCOC [Compound 10]

Same assay, conditions: Table 2b; nanoparticles comprising the lipid

Row | LNP surface hydrophobicity (N-GP*) | Structure (SMILES)
28 | 0.89 | CCCCCC(CCCCC)CCOC(=O)CCCCCCCN(CCCCCCCC(=O)OCCC(CCCC)CCCC)CCCNS(=O)(=O)CCOC [Compound 10]
